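Each compound was tested at five concentrations against cells in 96-well plates for 48 hours. GI50 = concentration required for 50% inhibition of growth.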 Calls of active or inactive are those of the source. No stated cut-off is given here; in the data, active = GI50 up to about 1.1 µM and inactive = higher.
Assays:
Experiment in all cases: NCI anticancer screen, dose series, 48 h
[1] = test system: HCT-116
[2] = test system: NCI-H460
[3] = test system: KM12
[4] = test system: SR
[5] = test system: UACC-257
[6] = test system: SW-620
[7] = test system: MOLT-4
[8] = test system: RXF 393
[9] = test system: NCI/ADR-RES
[10] = test system: HL-60
[11] = test system: ACHN
[12] = test system: OVCAR-3
[13] = test system: SN12C
[14] = test system: HT-29
[15] = test system: T47D
[16] = test system: TK-10
[17] = test system: SK-MEL-2
[18] = test system: OVCAR-4
[19] = test system: MDA-N
[20] = test system: Hs-578T

For N#CC(C#N)=Cn1c(=S)[nH]c2ccc([N+](=O)[O-])cc21, the GI50 [1] was > 100 µM (inactive), the GI50 [2] was > 100 µM (inactive) and the GI50 [3] was > 100 µM (inactive). The GI50 [4] was > 100 µM (inactive), the GI50 [5] was > 100 µM (inactive) and the GI50 [6] was > 100 µM (inactive). For the same compound, the GI50 [7] was > 100 µM (inactive), the GI50 [8] was > 100 µM (inactive) and the GI50 [9] was > 100 µM (inactive). For the same compound, the GI50 [10] was > 100 µM (inactive), the GI50 [11] was > 100 µM (inactive) and the GI50 [12] was > 100 µM (inactive). For the same compound, the GI50 [13] was > 100 µM (inactive), the GI50 [14] was > 100 µM (inactive) and the GI50 [15] was > 100 µM (inactive). The GI50 [16] was > 100 µM (inactive), the GI50 [17] was > 100 µM (inactive) and the GI50 [18] was > 100 µM (inactive). The GI50 [19] was > 100 µM (inactive) and the GI50 [20] was 60.8 µM (inactive).

CCOc1ccc(Nc2nc(N)nc(N)c2N=O)cc1 was tested, and the GI50 [1] was > 100 µM (inactive), the GI50 [2] was 32.9 µM (inactive) and the GI50 [3] was > 100 µM (inactive). The GI50 [4] was 71.1 µM (inactive), the GI50 [5] was 54 µM (inactive) and the GI50 [6] was 91.2 µM (inactive). For the same compound, the GI50 [7] was 17.6 µM (inactive), the GI50 [8] was 43.9 µM (inactive) and the GI50 [9] was 47.1 µM (inactive). For the same compound, the GI50 [10] was > 100 µM (inactive), the GI50 [11] was 42.1 µM (inactive) and the GI50 [12] was 24.6 µM (inactive). The GI50 [13] was 56.6 µM (inactive), the GI50 [14] was 30.4 µM (inactive) and the GI50 [15] was 19.2 µM (inactive). The GI50 [16] was 34.3 µM (inactive), the GI50 [17] was 65.2 µM (inactive) and the GI50 [18] was 69.3 µM (inactive). For the same compound, the GI50 [19] was 62.1 µM (inactive) and the GI50 [20] was 50.9 µM (inactive).

CN1CCN(CCCCN2c3ccccc3Sc3ccc(C(=O)c4ccccc4)cc32)CC1 was tested, and the GI50 [1] was 1.82 µM (inactive), the GI50 [2] was 1.54 µM (inactive) and the GI50 [3] was 1.49 µM (inactive). For the same compound, the GI50 [4] was 1.41 µM (inactive), the GI50 [5] was 1.75 µM (inactive) and the GI50 [6] was 1.73 µM (inactive). The GI50 [7] was 1.71 µM (inactive), the GI50 [8] was 0.923 µM (active) and the GI50 [9] was 1.86 µM (inactive). The GI50 [10] was 1.57 µM (inactive), the GI50 [11] was 1.67 µM (inactive) and the GI50 [12] was 1.66 µM (inactive). The GI50 [13] was 1.71 µM (inactive), the GI50 [14] was 1.29 µM (inactive) and the GI50 [15] was 5.65 µM (inactive). For the same compound, the GI50 [16] was 1.67 µM (inactive), the GI50 [17] was 1.77 µM (inactive) and the GI50 [18] was 2.08 µM (inactive). For the same compound, the GI50 [19] was 1.55 µM (inactive) and the GI50 [20] was 1.58 µM (inactive).

CCOC(=O)c1nc2ccc(C(F)(F)F)cc2[nH]c1=O was tested, and the GI50 [1] was > 100 µM (inactive), the GI50 [2] was > 100 µM (inactive) and the GI50 [3] was > 100 µM (inactive). For the same compound, the GI50 [4] was > 100 µM (inactive), the GI50 [5] was > 100 µM (inactive) and the GI50 [6] was > 100 µM (inactive). For the same compound, the GI50 [7] was > 100 µM (inactive), the GI50 [8] was > 100 µM (inactive) and the GI50 [9] was > 100 µM (inactive). For the same compound, the GI50 [10] was > 100 µM (inactive), the GI50 [11] was > 100 µM (inactive) and the GI50 [12] was > 100 µM (inactive). The GI50 [13] was > 100 µM (inactive), the GI50 [14] was > 100 µM (inactive) and the GI50 [15] was > 100 µM (inactive). For the same compound, the GI50 [16] was > 100 µM (inactive), the GI50 [17] was > 100 µM (inactive) and the GI50 [18] was > 100 µM (inactive). For the same compound, the GI50 [19] was > 100 µM (inactive) and the GI50 [20] was 82 µM (inactive).

With CC(=O)O[C@H]1C[C@@H](O[C@H]2[C@@H](O)C[C@H](O[C@H]3[C@@H](O)C[C@H](O[C@H]4CC[C@@]5(C)[C@H](CC[C@@H]6[C@@H]5C[C@@H](O)[C@]5(C)[C@@H](C7=CC(=O)OC7)CC[C@]65O)C4)O[C@@H]3C)O[C@@H]2C)O[C@H](C)[C@H]1O.CC(=O)O[C@H]1[C@@H](O)C[C@@H](O[C@H]2[C@@H](O)C[C@H](O[C@H]3[C@@H](O)C[C@H](O[C@H]4CC[C@@]5(C)[C@H](CC[C@@H]6[C@@H]5C[C@@H](O)[C@]5(C)[C@@H](C7=CC(=O)OC7)CC[C@]65O)C4)O[C@@H]3C)O[C@@H]2C)O[C@@H]1C the GI50 [1] was 0.0262 µM (active), the GI50 [2] was 0.0148 µM (active) and the GI50 [3] was 0.0324 µM (active). The GI50 [4] was 0.0443 µM (active), the GI50 [5] was 0.0541 µM (active) and the GI50 [6] was 0.0435 µM (active). The GI50 [7] was 0.0167 µM (active), the GI50 [8] was 0.0279 µM (active) and the GI50 [9] was 0.0238 µM (active). For the same compound, the GI50 [10] was 0.0382 µM (active), the GI50 [11] was 0.0136 µM (active) and the GI50 [12] was 0.0119 µM (active). For the same compound, the GI50 [13] was 0.0423 µM (active), the GI50 [14] was 0.0278 µM (active) and the GI50 [15] was 0.0455 µM (active). The GI50 [16] was 0.0299 µM (active), the GI50 [17] was 0.0679 µM (active) and the GI50 [18] was 0.0153 µM (active). The GI50 [19] was 0.0402 µM (active) and the GI50 [20] was 0.0251 µM (active).

Reference: ChEMBL document CHEMBL1201862, “PubChem BioAssay data set” (2004)
